Measured values taken from PubChem BioAssay (NCI).
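How tested: cells in 96-well plates exposed to compound for 48 hours at five concentrations. The concentration for 50% growth inhibition is given as GI50. At the TGI there is no net growth.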

What was measured:
Test in all cases: NCI tumour cell line growth inhibition, 48 h
ACHN renal = test system: ACHN renal
HS 578T breast = test system: HS 578T breast
HT29 colon = test system: HT29 colon
MALME-3M melanoma = test system: MALME-3M melanoma
NCI-H460 lung = test system: NCI-H460 lung
OVCAR-8 ovarian = test system: OVCAR-8 ovarian
K-562 leukemia = test system: K-562 leukemia
HOP-18 NSCLC = test system: HOP-18 NSCLC
SK-MEL-2 melanoma = test system: SK-MEL-2 melanoma
DMS 114 small cell lung = test system: DMS 114 small cell lung
P388/ADR leukemia = test system: P388/ADR leukemia
DLD-1 colon = test system: DLD-1 colon
NCI-H23 lung = test system: NCI-H23 lung
HOP-62 NSCLC = test system: HOP-62 NSCLC
LOX IMVI melanoma = test system: LOX IMVI melanoma
A549 NSCLC = test system: A549 NSCLC
KM20L2 colon = test system: KM20L2 colon

With COc1cc(/C=C2\CN(S(=O)(=O)c3ccc(C)cc3)C/C(=C\c3cc(CN4CCCCC4)c(O)c(OC)c3)C2=O)cc(CN2CCCCC2)c1O the GI50 (ACHN renal) was 1.44 µM, the TGI (ACHN renal) was 2.74 µM and the GI50 (HS 578T breast) was 1.92 µM. The TGI (HS 578T breast) was 4.5 µM.
NC(Cc1c[nH]c2ccccc12)C(=O)O (centres undefined) gave a TGI (HT29 colon) of over 300 µM, a TGI (MALME-3M melanoma) of over 300 µM and a TGI (NCI-H460 lung) of over 300 µM. The TGI (OVCAR-8 ovarian) was over 248 µM, the TGI (K-562 leukemia) was over 189 µM and the TGI (HOP-18 NSCLC) was 196 µM. It also gave a TGI (SK-MEL-2 melanoma) of over 300 µM, a TGI (DMS 114 small cell lung) of over 300 µM and a TGI (P388/ADR leukemia) of over 300 µM. For the same molecule, the TGI (DLD-1 colon) was over 300 µM, the TGI (NCI-H23 lung) was over 300 µM and the TGI (HOP-62 NSCLC) was over 300 µM. It also gave a TGI (LOX IMVI melanoma) of over 300 µM, a TGI (A549 NSCLC) of over 300 µM and a TGI (KM20L2 colon) of over 300 µM.
